Patent US7049080B2, “Process for detecting serine/threonine kinase activity” (priority 2000, dated 2006)
Non-standard residues stand in square brackets, D forms with d. *: point of attachment. 5‑TAMRA = CN(C)c1ccc2c(-c3ccc(C(=O)*)cc3C(=O)[O-])c3ccc(N(C)C)cc3[o+]c2c1; pY = N[C@@H](Cc1ccc(OP(=O)(O)O)cc1)C(=O)O; pT = C[C@@H](OP(=O)(O)O)[C@H](N)C(=O)O; AEEA = NCCOCCOCC(=O)O

Legend:
NEB antibody #9251 [1] = assay: FP controls conjugate/high/low (Example 7); format: binding, rabbit; settings: 0 h
Method: The following reagents have been used (the compositions of the buffers and specifications of the reagents are explained in more detail later on): Hepes buffer, MgCl2 10 mM, ATP 20 μM, P1^∘ peptide at 100 μM, NEB antibody # 9251 1:20 dilution, P1*^∘-TAMRA 5 nM, Pluronic 0.1%, MKK7 at 0, 0.005, 0.02, 0.08, 0.2, 0.5 and 2 μM.
After addition of MKK7, the enzyme reactions were performed in Nunc chambers at RT. The samples were continuously measured at different time points by Fluorescence polarization.
(§1) Bis-phosphorylated peptide P1*^∘ can be used as competitor, resulting in free labelled ligand called “low” or “negative control”. This can be seen in the following table 1.

[2] = target: polyclonal phospho-JNK antibody NEB #9251; assay: Binding of polyclonal phospho-JNK antibody to TAMRA-labelled peptides (fluorescence polarization); set-up: species or system rabbit; settings: antibody 1:20, peptide 5 nM, read-out: KD, affinity of polyclonal phospho-JNK antibody for peptide
Source text: The polarization values dramatically increase when using the double-phosphorylated peptide substrate P1*^∘ in contrast to mono-phosphorylated labelled peptide P1^∘ (sequence see above).
Measurement of the Binding Affinity (KD) of Antibody NEB #9251:
This polyclonal antibody detects all three isoforms of the SAPK1/JNK proteins only when they are activated by dual phosphorylation at threonine183/tyrosine185. Binding of poly-clonal phospho-JNK antibody (at a dilution of 1:20) from NEB to TAMRA-labelled P1^∘- and P1*^∘ peptides (each 5 nM) was measured by fluorescence polarization.

NEB antibody #9251 [3] = assay: FP controls conjugate/high/low (Example 8); format: binding, rabbit; settings: 0 h
Method: The following reagents have been used (explanations later on): Hepes buffer, MgCl2 (10 mM), ATP (20 μM), P1^∘ peptide (100 μM), polyclonal antibody NEB #9251 (1:20), P1*^∘-TAMRA (5 nM), Pluronic (0.1%), BSA (0.01%), MKK7 at (0.04, 0.08 and 0.2 μM), EDTA (10 mM) (all final conc.).
The enzyme reactions were performed in Eppendorf reaction tubes at RT. Aliquots of 20 μl were withdrawn from the reactions at different time points and mixed with 10 μl STOP solution. The stopped reactions were incubated at RT for at least 30 min and measured by Fluorescence Polarization.
as §1

[4] = Low: P1*°-Tamra + NEB ab (1:20) + competitor 200 nM

**Q.** “5-TAMRA-AEEA-Lys-Phe-Met-Met-pThr-Pro-pTyr-Val-Val-Thr-Arg-NH2 ({5‑TAMRA-AEEA}-KFMM[pT]P[pY]VVTR-NH2; SMILES CSCC[C@H](NC(=O)[C@H](Cc1ccccc1)NC(=O)[C@H](CCCCN)NC(=O)COCCOCCNC(=O)c1ccc(-c2c3ccc(N(C)C)cc3[o+]c3cc(N(C)C)ccc23)c(C(=O)[O-])c1)C(=O)N[C@@H](CCSC)C(=O)N[C@H](C(=O)N1CCC[C@H]1C(=O)N[C@@H](Cc1ccc(OP(=O)(O)O)cc1)C(=O)N[C@H](C(=O)N[C@H](C(=O)N[C@H](C(=O)N[C@@H](CCCNC(=N)N)C(N)=O)[C@@H](C)O)C(C)C)C(C)C)[C@@H](C)OP(=O)(O)O) [P1*^∘-TAMRA]” was tested. Which “Fluorescence Polarization” value (NEB antibody #9251 [1]; Conjugate alone) did it give?
**A.** Its value is 39.7 mP.

**Q.** What about the “Fluorescence Polarization” value (NEB antibody #9251 [1]; High: + NEB ab (1:20)) of the same substance?
**A.** Its value is 139.1 mP.

**Q.** And the Kd [2]?
**A.** The Kd was 2.6 nM.

**Q.** What about the “Fluorescence Polarization” value (NEB antibody #9251 [3]; Conjugate alone) of the same substance?
**A.** Its value is 33.2 mP.

**Q.** And the “Fluorescence Polarization” value (NEB antibody #9251 [3]; High: + NEB ab (1:20))?
**A.** Its value is 145.7 mP.

**Q.** With “H-Lys-Phe-Met-Met-Thr-Pro-pTyr-Val-Val-Thr-Arg-NH2 (H-KFMMTP[pY]VVTR-NH2; SMILES CSCC[C@H](NC(=O)[C@H](Cc1ccccc1)NC(=O)[C@@H](N)CCCCN)C(=O)N[C@@H](CCSC)C(=O)N[C@H](C(=O)N1CCC[C@H]1C(=O)N[C@@H](Cc1ccc(OP(=O)(O)O)cc1)C(=O)N[C@H](C(=O)N[C@H](C(=O)N[C@H](C(=O)N[C@@H](CCCNC(=N)N)C(N)=O)[C@@H](C)O)C(C)C)C(C)C)[C@@H](C)O) [P1^∘]” as the substance, how does the “Fluorescence Polarization” value (NEB antibody #9251 [3]; [4]) read?
**A.** Its value is 71.5 mP.

**Q.** Which “Fluorescence Polarization” value (NEB antibody #9251 [1]; [4]) does the source give for “H-Lys-Phe-Met-Met-pThr-Pro-pTyr-Val-Val-Thr-Arg-NH2 (H-KFMM[pT]P[pY]VVTR-NH2; SMILES CSCC[C@H](NC(=O)[C@H](Cc1ccccc1)NC(=O)[C@@H](N)CCCCN)C(=O)N[C@@H](CCSC)C(=O)N[C@H](C(=O)N1CCC[C@H]1C(=O)N[C@@H](Cc1ccc(OP(=O)(O)O)cc1)C(=O)N[C@H](C(=O)N[C@H](C(=O)N[C@H](C(=O)N[C@@H](CCCNC(=N)N)C(N)=O)[C@@H](C)O)C(C)C)C(C)C)[C@@H](C)OP(=O)(O)O) [P1*^∘]” here?
**A.** The value was 84.5 mP.
